From ChEMBL document CHEMBL3991601, “The target landscape of clinical kinase drugs” (Science, 2017)
pKd: −log10 of the molar value. The source made the active and inactive calls. For most assays here, no stated cut-off is given here; in the data, actives have a measured Kd and inactives only a lower limit.

Columns and labels:
Ephrin type-B receptor 2 = target: T1, Ephrin type-B receptor 2 (Homo sapiens, UniProt P29323)
T1 sequence (P29323 whole entry): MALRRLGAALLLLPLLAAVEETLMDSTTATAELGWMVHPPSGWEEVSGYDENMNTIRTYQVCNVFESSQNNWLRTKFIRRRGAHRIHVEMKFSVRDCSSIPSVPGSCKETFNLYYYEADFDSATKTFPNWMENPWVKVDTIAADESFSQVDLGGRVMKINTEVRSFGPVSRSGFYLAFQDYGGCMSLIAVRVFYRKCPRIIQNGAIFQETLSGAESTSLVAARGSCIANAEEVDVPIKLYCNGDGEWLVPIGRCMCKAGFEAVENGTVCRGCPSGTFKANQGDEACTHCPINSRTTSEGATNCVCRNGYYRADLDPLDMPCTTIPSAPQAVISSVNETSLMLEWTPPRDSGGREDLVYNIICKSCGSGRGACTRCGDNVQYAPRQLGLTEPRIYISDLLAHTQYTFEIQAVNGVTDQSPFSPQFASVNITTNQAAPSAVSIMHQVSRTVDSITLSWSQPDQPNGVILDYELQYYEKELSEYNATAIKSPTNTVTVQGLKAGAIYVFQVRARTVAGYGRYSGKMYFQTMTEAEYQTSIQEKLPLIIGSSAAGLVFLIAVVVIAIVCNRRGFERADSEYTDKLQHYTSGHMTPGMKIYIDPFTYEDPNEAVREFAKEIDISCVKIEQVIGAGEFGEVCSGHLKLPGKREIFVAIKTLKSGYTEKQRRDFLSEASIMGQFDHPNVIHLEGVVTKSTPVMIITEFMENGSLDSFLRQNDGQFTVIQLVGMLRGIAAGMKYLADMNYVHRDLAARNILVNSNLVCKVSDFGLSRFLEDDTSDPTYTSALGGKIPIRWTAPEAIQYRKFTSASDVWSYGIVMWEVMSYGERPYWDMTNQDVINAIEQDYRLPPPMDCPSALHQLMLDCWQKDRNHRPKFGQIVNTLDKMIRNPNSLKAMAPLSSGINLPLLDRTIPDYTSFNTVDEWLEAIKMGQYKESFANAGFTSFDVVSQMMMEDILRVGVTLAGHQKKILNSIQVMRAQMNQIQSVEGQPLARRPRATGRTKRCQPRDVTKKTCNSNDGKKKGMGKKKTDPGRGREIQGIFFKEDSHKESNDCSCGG

[1] = target: Tyrosine-protein kinase JAK1 (Homo sapiens, UniProt P23458)
Sequence of Tyrosine-protein kinase JAK1 (P23458 whole entry): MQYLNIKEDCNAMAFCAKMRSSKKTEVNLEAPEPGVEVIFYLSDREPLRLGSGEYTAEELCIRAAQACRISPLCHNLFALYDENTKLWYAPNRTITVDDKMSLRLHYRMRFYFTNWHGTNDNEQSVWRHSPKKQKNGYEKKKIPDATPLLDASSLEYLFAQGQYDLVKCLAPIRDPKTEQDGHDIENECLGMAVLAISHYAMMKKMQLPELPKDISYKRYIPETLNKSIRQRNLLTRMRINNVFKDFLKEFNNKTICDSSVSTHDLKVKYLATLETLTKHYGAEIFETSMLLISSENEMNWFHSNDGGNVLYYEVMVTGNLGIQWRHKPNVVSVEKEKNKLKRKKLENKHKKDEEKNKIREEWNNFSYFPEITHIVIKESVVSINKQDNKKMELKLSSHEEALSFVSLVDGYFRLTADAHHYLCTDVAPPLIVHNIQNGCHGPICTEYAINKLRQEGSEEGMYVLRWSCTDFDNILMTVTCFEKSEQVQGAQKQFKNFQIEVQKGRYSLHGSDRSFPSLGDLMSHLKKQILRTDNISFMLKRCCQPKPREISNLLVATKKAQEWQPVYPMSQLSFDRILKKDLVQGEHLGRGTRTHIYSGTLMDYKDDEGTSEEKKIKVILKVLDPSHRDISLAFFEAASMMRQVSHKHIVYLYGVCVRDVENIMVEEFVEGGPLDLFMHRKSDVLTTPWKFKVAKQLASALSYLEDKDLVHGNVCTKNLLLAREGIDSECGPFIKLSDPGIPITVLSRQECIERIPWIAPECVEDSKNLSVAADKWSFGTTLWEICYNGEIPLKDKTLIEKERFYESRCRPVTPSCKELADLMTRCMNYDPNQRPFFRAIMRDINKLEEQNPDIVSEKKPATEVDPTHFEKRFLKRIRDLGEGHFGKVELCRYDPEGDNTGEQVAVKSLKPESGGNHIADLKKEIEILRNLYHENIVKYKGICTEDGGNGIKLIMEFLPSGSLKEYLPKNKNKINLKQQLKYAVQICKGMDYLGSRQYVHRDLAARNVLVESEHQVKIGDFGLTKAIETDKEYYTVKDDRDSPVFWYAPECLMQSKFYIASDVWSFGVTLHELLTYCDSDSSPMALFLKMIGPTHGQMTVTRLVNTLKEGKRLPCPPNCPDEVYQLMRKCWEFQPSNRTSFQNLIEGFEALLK

[2] = target: Serine/threonine-protein kinase pim-1 (Homo sapiens, UniProt P11309)
Sequence of Serine/threonine-protein kinase pim-1 (P11309 whole entry): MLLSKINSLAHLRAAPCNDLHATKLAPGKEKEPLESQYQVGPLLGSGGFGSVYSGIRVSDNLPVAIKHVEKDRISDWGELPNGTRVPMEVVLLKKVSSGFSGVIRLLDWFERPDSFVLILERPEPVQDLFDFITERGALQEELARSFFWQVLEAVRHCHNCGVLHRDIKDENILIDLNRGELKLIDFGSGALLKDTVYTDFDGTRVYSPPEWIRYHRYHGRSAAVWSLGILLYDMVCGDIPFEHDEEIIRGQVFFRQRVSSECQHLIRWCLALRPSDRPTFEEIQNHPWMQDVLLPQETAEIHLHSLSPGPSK

[3] = target: Ribosomal protein S6 kinase alpha-6 (Homo sapiens, UniProt Q9UK32)
Sequence of Ribosomal protein S6 kinase alpha-6 (Q9UK32 whole entry): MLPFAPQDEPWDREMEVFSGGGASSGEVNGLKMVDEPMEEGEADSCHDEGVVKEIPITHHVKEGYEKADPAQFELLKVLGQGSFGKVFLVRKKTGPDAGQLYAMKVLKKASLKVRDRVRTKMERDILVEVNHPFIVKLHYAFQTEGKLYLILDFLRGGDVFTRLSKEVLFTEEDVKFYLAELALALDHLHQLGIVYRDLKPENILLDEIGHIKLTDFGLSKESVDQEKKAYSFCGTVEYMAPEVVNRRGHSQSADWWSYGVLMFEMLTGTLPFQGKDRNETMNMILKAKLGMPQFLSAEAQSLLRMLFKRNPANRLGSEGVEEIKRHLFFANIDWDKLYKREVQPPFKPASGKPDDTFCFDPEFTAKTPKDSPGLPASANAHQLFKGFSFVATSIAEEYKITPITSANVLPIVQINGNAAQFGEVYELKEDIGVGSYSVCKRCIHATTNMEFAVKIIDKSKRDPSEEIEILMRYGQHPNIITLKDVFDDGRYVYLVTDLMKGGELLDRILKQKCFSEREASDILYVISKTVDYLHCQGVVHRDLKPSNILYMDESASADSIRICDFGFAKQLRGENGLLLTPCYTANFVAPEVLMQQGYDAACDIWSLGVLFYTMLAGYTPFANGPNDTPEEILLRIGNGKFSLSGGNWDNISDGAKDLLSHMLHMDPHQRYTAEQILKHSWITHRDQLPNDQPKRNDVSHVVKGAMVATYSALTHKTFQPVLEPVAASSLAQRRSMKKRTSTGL

[4] = target: T2, Serine/threonine-protein kinase STK11 (Homo sapiens, UniProt Q15831)
T2 sequence (Q15831 whole entry): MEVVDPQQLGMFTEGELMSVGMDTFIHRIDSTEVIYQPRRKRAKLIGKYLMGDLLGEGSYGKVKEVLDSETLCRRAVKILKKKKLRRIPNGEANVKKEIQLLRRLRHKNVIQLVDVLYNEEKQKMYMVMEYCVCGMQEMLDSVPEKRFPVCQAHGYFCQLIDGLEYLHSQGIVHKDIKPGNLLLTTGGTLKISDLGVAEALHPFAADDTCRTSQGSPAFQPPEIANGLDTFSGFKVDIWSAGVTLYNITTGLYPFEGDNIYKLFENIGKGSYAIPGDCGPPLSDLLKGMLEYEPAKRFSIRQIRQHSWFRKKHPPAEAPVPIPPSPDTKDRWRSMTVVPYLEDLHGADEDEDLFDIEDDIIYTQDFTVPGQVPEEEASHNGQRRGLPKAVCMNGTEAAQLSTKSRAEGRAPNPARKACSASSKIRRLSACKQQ

[5] = target: T3, Serine/threonine-protein kinase TBK1 (Homo sapiens, UniProt Q9UHD2)
T3 sequence (Q9UHD2 whole entry): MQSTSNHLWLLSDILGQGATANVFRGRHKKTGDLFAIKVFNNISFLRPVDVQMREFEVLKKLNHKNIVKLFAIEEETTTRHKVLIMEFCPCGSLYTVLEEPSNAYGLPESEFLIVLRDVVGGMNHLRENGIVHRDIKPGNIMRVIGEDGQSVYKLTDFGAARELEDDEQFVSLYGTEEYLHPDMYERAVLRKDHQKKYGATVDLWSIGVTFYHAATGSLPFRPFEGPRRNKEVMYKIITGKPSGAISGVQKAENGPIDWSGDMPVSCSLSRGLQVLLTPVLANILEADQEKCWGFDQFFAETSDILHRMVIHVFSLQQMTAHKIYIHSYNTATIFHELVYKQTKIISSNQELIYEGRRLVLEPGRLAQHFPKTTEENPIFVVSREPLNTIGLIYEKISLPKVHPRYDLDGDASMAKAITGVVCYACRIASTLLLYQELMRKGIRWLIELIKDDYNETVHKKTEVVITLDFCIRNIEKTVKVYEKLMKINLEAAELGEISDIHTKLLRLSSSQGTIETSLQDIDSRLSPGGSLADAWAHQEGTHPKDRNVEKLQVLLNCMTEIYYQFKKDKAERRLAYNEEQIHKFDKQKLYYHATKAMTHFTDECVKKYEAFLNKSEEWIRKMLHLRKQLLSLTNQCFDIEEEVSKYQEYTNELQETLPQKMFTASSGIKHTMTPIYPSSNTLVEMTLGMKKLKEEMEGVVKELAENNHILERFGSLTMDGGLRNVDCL

[6] = target: T4, Tyrosine-protein kinase Tec (Homo sapiens, UniProt P42680)
T4 sequence (P42680 whole entry): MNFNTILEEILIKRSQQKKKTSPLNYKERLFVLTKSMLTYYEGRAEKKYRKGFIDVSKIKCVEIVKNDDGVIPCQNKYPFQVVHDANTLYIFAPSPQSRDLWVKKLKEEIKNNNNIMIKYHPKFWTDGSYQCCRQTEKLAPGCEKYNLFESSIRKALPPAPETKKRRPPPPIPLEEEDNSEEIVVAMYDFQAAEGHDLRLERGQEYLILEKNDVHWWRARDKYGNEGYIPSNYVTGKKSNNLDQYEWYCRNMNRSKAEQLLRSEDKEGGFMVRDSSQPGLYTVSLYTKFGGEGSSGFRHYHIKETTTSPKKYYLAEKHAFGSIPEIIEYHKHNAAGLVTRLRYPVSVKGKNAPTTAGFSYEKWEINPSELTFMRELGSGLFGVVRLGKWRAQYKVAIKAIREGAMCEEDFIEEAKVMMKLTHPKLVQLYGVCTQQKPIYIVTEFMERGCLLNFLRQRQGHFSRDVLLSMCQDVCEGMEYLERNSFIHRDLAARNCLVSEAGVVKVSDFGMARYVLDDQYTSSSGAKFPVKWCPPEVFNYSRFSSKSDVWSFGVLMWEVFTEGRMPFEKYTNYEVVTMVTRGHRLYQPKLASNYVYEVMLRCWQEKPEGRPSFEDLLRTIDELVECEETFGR

Row | Kd [1] | Kd [5] | pKd [4] | Structure (SMILES) | Kd (Ephrin type-B receptor 2) | Kd [2] | Kd [3] | Kd [4] | Kd [6] | pKd [2]
1 | > 30 µM (inactive) | > 30 µM (inactive) | – | NC(=O)c1ccc(N(C(N)=O)c2c(F)cccc2F)nc1-c1ccc(F)cc1F [VX-702] | > 30 µM (inactive) | > 30 µM (inactive) | > 30 µM (inactive) | > 30 µM (inactive) | > 30 µM (inactive) | –
2 | > 30 µM (inactive) | > 30 µM (inactive) | 6.15 | Cc1cc(Nc2nc(N[C@@H](C)c3ncc(F)cn3)ncc2Cl)n[nH]1 [AZD-1480] | > 30 µM (inactive) | > 30 µM (inactive) | > 30 µM (inactive) | – | > 30 µM (inactive) | –
3 | > 30 µM (inactive) | > 30 µM (inactive) | – | COc1cc2ncnc(Nc3ccc(O)cc3)c2cc1OC [WHI-P131] | > 30 µM (inactive) | > 30 µM (inactive) | 5.9 µM (active) | > 30 µM (inactive) | > 30 µM (inactive) | –
4 | > 30 µM (inactive) | > 30 µM (inactive) | – | CNC(=O)c1cc(COc2nnc(Nc3ccc(Cl)cc3)c3ccoc23)ccn1 [TELATINIB] | > 30 µM (inactive) | > 30 µM (inactive) | > 30 µM (inactive) | > 30 µM (inactive) | > 30 µM (inactive) | –
5 | > 30 µM (inactive) | – | – | Cn1c(=O)n(-c2ccc(C(C)(C)C#N)cc2)c2c3cc(-c4cnc5ccccc5c4)ccc3ncc21 [DACTOLISIB] | > 30 µM (inactive) | – | > 30 µM (inactive) | > 30 µM (inactive) | > 30 µM (inactive) | –
6 | > 30 µM (inactive) | > 30 µM (inactive) | – | CCN1CCN(Cc2ccc(Nc3ncc(F)c(-c4cc(F)c5nc(C)n(C(C)C)c5c4)n3)nc2)CC1 [ABEMACICLIB] | > 30 µM (inactive) | – | > 30 µM (inactive) | > 30 µM (inactive) | > 30 µM (inactive) | –
7 | – | – | – | N#CCNC(=O)c1ccc(-c2ccnc(Nc3ccc(N4CCOCC4)cc3)n2)cc1 [MOMELOTINIB] | > 30 µM (inactive) | > 30 µM (inactive) | > 30 µM (inactive) | > 30 µM (inactive) | > 30 µM (inactive) | –
8 | > 30 µM (inactive) | > 30 µM (inactive) | – | COc1ccc(-c2ccc3ncc4c(c3c2)n(-c2ccc(N3CCNCC3)c(C(F)(F)F)c2)c(=O)n4C)cn1 [BGT-226 FREE BASE] | > 30 µM (inactive) | > 30 µM (inactive) | > 30 µM (inactive) | – | > 30 µM (inactive) | –
9 | > 30 µM (inactive) | – | – | CCN(CCCOc1ccc2c(Nc3cc(CC(=O)Nc4cccc(F)c4)n[nH]3)ncnc2c1)CCOP(=O)(O)O [BARASERTIB] | > 30 µM (inactive) | – | > 30 µM (inactive) | > 30 µM (inactive) | > 30 µM (inactive) | –
10 | > 30 µM (inactive) | > 30 µM (inactive) | – | O=C(O)c1ccc2c(c1)nc(Nc1cccc(Cl)c1)c1ccncc12 [SILMITASERTIB] | > 30 µM (inactive) | – | 3.42 µM (active) | > 30 µM (inactive) | > 30 µM (inactive) | –

Row | Structure (SMILES) | Kd [1] | Kd [5] | pKd [4] | Kd (Ephrin type-B receptor 2) | Kd [2] | Kd [3] | Kd [4] | Kd [6] | pKd [2]
11 | Cc1c(NC(=O)OC[C@@H]2COCCN2)cn2ncnc(Nc3ccc4c(cnn4Cc4cccc(F)c4)c3)c12 [AC-480] | > 30 µM (inactive) | > 30 µM (inactive) | – | > 30 µM (inactive) | > 30 µM (inactive) | > 30 µM (inactive) | – | > 30 µM (inactive) | –
12 | Cn1cc(-c2[nH]c3cc(NC(=O)[C@H](N)C4CCCCC4)cc4c3c2C=NNC4=O)cn1 | – | > 30 µM (inactive) | – | > 30 µM (inactive) | > 30 µM (inactive) | 2.38 µM (active) | 4.37 µM (active) | > 30 µM (inactive) | –
13 | CN(c1ncccc1CNc1nc(Nc2ccc3c(c2)CC(=O)N3)ncc1C(F)(F)F)S(C)(=O)=O [PF-00562271] | > 30 µM (inactive) | – | – | > 30 µM (inactive) | – | > 30 µM (inactive) | 0.626 µM (active) | > 30 µM (inactive) | –
14 | C[C@]1(O)C[C@@H](c2nc(-c3ccc4ccc(-c5ccccc5)nc4c3)c3c(N)nccn32)C1 [LINSITINIB] | > 30 µM (inactive) | > 30 µM (inactive) | – | > 30 µM (inactive) | – | > 30 µM (inactive) | > 30 µM (inactive) | > 30 µM (inactive) | –
15 | NC[C@@](O)(c1ccc(Cl)cc1)c1ccc(-c2cn[nH]c2)cc1 [AT-13148] | > 30 µM (inactive) | > 30 µM (inactive) | – | > 30 µM (inactive) | > 30 µM (inactive) | > 30 µM (inactive) | > 30 µM (inactive) | > 30 µM (inactive) | –
16 | CN1CCN(c2nc(C3=C(c4c[nH]c5ccccc45)C(=O)NC3=O)c3ccccc3n2)CC1 [SOTRASTAURIN] | > 30 µM (inactive) | > 30 µM (inactive) | – | > 30 µM (inactive) | – | – | > 30 µM (inactive) | > 30 µM (inactive) | 5.05
17 | CC(C)CC(=O)Nc1[nH]nc2c1CN(C(=O)C1CCN(C)CC1)C2(C)C [PHA-793887] | > 30 µM (inactive) | > 30 µM (inactive) | – | > 30 µM (inactive) | > 30 µM (inactive) | > 30 µM (inactive) | – | > 30 µM (inactive) | –
18 | C=CCn1c(=O)c2cnc(Nc3ccc(N4CCN(C)CC4)cc3)nc2n1-c1cccc(C(C)(C)O)n1 [ADAVOSERTIB] | > 30 µM (inactive) | – | – | > 30 µM (inactive) | – | > 30 µM (inactive) | > 30 µM (inactive) | > 30 µM (inactive) | –
19 | O=S(=O)(c1cccc2cnccc12)N1CCCNCC1 [FASUDIL] | > 30 µM (inactive) | – | – | > 30 µM (inactive) | – | > 30 µM (inactive) | > 30 µM (inactive) | > 30 µM (inactive) | –
